For data set [1], the system named is HaCaT. Description: Membrane potential by DiOC5(3) flow cytometry in HaCaT. It is filed as cell-based, human. As for the experimental part:
In an embodiment the membrane potential can be determined by: HUVEC and HaCaT cells were seeded at a density of 4×10^4 cells/cm^2 and in 24-well plates and cultured for 24 h. […] Soluble LL37 were also used in the concentration of 0.5, 1, 10, 30, 60 μg/mL. After 5 and 48 h, cells were harvested, resuspended in medium with 5 nM of DiOC5(3) (Sigma-Aldrich) and incubated for 5 min at room temperature in the dark, prior to the analysis with the flow cytometer (FACSCalibur, BD Biosciences). Cells treated with gramicidin (10 μM) or valinomycin (10 μM) were used as controls for cell depolarization and hyperpolarization, respectively.

The subject of data set [2] is full-thickness excisional wounds. Description: In vivo wound healing, splinted mouse full thickness excisional model. Set-up: species or system RjHan:NMRI female mice. The source says: For measure some parameters In vivo wound healing and tissue collection can be use. 6-7 week old RjHan:NMRI female mice (Janvier, BE) were anesthesized with isoflurane and the dorsal area was shaved using a depilatory cream a day before the surgery. Two 0.5-mm-thick silicone (Grace biolabs, UK) donut-shaped splints (OD=20 mm, ID=10 mm) were fixed on either side of the dorsal midline, approximately 3.5 cm from the ears and positioned with 6-0 nylon sutures (Monosof, USA). Full-thickness excisional wounds were made using an 8 mm round skin biopsy punch (Kai Europe GMBH, DE), centered within each splint. […] Wound areas were quantified using the Jmicro Vision software developed by N. Roduit at University of Geneva, Switzerland. Wound sizes are expressed as percentage of the initial respective wound. […]
In an embodiment, histology and immunohistochemistry assay were conducted: the wound halves were immediately fixed with paraformaldehyde (4% in PBS, 0.01 M, pH 7.4) and after 24 h, the samples were transferred to PBS buffer at 4° C. […] A semi-quantitative estimation of MT green staining was performed using FRIDA software (developed by Johns Hopkins University, USA) and the staining values were expressed as staining per unit area. […]

Data set [3] deals with HUVECs. Description: VEGF secretion in HUVECs (ELISA). The conditions noted are these: 24 h, LL37 5 μg/mL, NPs 200 μg/mL. The class given is cell-based, human. How it is done: In an embodiment measurement of VEGF amount in HUVECs can be perform by the following method: HUVECs were seeded at a density of 4×10^4 cells/cm^2 in 24-well plates and cultured for 24 h in EGM-2 without VEGF. LL-37 (5 μg/mL), LL37 AUNPs and AuNPs (200 μg/mL) suspended in culture medium without VEGF at different concentrations were added to cells. LL-37 (5 μg/mL) and LL-37 AUNPs (200 μg/mL) were also incubated in the presence of 10 μM of FPRL1 Antagonist. After 24 h of incubation, cell media from all the conditions were collected and used to quantify VEGF amount in supernatants. In order to calculate the amount of VEGF in supernatants, Human VEGF ELISA development Kit (PeproTech) was used according to the manufacture's instructions. A calibration curve was used for the ranging between 0-1000 pg/mL VEGF.

Data set [4] has as its system venous leg ulcers. The conditions noted are these: cited from earlier work.

These results are taken from US20180264134A1, “A COMPOSITION OF GOLD NANOPARTICLES HAVING ANTIMICROBIAL PEPTIDES BOUND ON THEIR SURFACE FOR USE THE TREATMENT OF WOUND HEALING OR IN THE TREATMENT OF ISCHEMIC OR VASCULAR DISEASES OR IN THE TREATMENT OF SKIN DISORDERS” (priority 2015, published 2018).

Several values for one entry are separate records, joined by “and”; a condition that tells them apart may be missing. Identical values can stand only once.

For the compound `CC[C@H](C)[C@H](NC(=O)[C@H](CCCCN)NC(=O)[C@H](CCC(=O)O)NC(=O)[C@H](CCCCN)NC(=O)[C@H](CO)NC(=O)[C@H](CCCCN)NC(=O)[C@H](CCCNC(=N)N)NC(=O)[C@H](Cc1ccccc1)NC(=O)[C@H](Cc1ccccc1)NC(=O)[C@H](CC(=O)O)NC(=O)CNC(=O)[C@H](CC(C)C)NC(=O)[C@@H](N)CC(C)C)C(=O)NCC(=O)N[C@@H](CCCCN)C(=O)N[C@@H](CCC(=O)O)C(=O)N[C@@H](Cc1ccccc1)C(=O)N[C@@H](CCCCN)C(=O)N[C@@H](CCCNC(=N)N)C(=O)N[C@H](C(=O)N[C@H](C(=O)N[C@@H](CCC(N)=O)C(=O)N[C@@H](CCCNC(=N)N)C(=O)N[C@H](C(=O)N[C@@H](CCCCN)C(=O)N[C@@H](CC(=O)O)C(=O)N[C@@H](Cc1ccccc1)C(=O)N[C@@H](CC(C)C)C(=O)N[C@@H](CCCNC(=N)N)C(=O)N[C@@H](CC(N)=O)C(=O)N[C@@H](CC(C)C)C(=O)N[C@H](C(=O)N1CCC[C@H]1C(=O)N[C@@H](CCCNC(=N)N)C(=O)N[C@H](C(=O)N[C@@H](CCC(=O)O)C(=O)N[C@@H](CO)C(=O)N[C@@H](CS)C(N)=O)[C@@H](C)O)C(C)C)[C@@H](C)CC)C(C)C)[C@@H](C)CC` [LL37], the “membrane potential of keratinocytes” value in data set [1] (5 h of contact) was “hyperpolarized”; in data set [1] (48 h of contact), “not observed”; in data set [1] (48 h of contact, listed as LL37 peptide), “the effect was lost”. In data set [1] (NPs up to 400 μg/mL), the “membrane potential of HaCaT” value is given as “not altered”. Moreover, the “concentration causing slight hyperpolarization” value in data set [1] (keratinocytes, 5 h exposure) is recorded as “above 25 μg/mL”. Moreover, the wound healing in data set [2] (after 10 days, LL37 70 μg per wound, listed as LL37 peptide) was 50% and 70%. For the same compound, the “MPO activity in wound tissue” value in data set [2] (day 10) was “significantly decreased”. Also, the “secretion of VEGF165” value in data set [3] is on record as “induce the secretion”. The “primary safety and tolerability end-point” value in data set [4] (patients with venous leg ulcers) is given as “met”. The “healing rate compared with placebo” value in data set [4] (twice per week, 0.5 mg/mL) was “statistically significant improved healing rate”.
